Reference: the supplement of paper PMC11208160

test: recombinant UMI read abundance after kanamycin selection (control-corrected) (log10(CPM+1)); higher = more efficient recombination; extreme values may be limits of the assay; sequences stand for … in AGTGCAGAGAAAATCGGCCAGTTTTCTCTGCCTGCAGTCCGCATGCCGTGGGACCCCTTGGGTTCTAACCTGTTGCCTAGATTTATGCAGCGGACTGCCTTTCTCCCAAAGTGATAAACCGG…AGGTTGGTTTCACT; site = the 11-nt donor
Method in brief: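 Counts of recombinant UMIs were reported as log10(CPM+1). Before that, they were converted to CPM, averaged over replicates and scaled using control-derived factors. They came from PCR across the donor–target junction after Escherichia coli carrying the pair library and target plasmid was plated on IPTG (0.07 mM) plus kanamycin, or unselected, in two replicates each.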
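Also: IS621 bridge recombinase in Escherichia coli cells against a fixed T5 target plasmid.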

Row | Sequence | recombinant UMI read abundance (log10)
1 | GGTACGTCATGGACCGGTTTTCCCGGTAATCCGTATTTGTT (site AGTACGTCTAA) | 0.0112
2 | GGTACGTCATGGACCGGTTTTCCCGGTAATCCGTATTTGTT (site CGTACGTCTAA) | 0
3 | GGTACGTCATGGACCGGTTTTCCCGGTAATCCGTATTTGTT (site GATACGTCTAA) | 0.00543
4 | GGTACGTCATGGACCGGTTTTCCCGGTAATCCGTATTTGTT (site GCTACGTCTAA) | 0.0161
5 | GGTACGTCATGGACCGGTTTTCCCGGTAATCCGTATTTGTT (site GGAACGTCTAA) | 0.0323
6 | GGTACGTCATGGACCGGTTTTCCCGGTAATCCGTATTTGTT (site GGCACGTCTAA) | 0.0185
7 | GGTACGTCATGGACCGGTTTTCCCGGTAATCCGTATTTGTT (site GGGACGTCTAA) | 0.0133
8 | GGTACGTCATGGACCGGTTTTCCCGGTAATCCGTATTTGTT (site GGTAAGTCTAA) | 0
9 | GGTACGTCATGGACCGGTTTTCCCGGTAATCCGTATTTGTT (site GGTACATCTAA) | 0.535
10 | GGTACGTCATGGACCGGTTTTCCCGGTAATCCGTATTTGTT (site GGTACCTCTAA) | 0.0198
11 | GGTACGTCATGGACCGGTTTTCCCGGTAATCCGTATTTGTT (site GGTACGACTAA) | 0.0066
12 | GGTACGTCATGGACCGGTTTTCCCGGTAATCCGTATTTGTT (site GGTACGCCTAA) | 0.0208
13 | GGTACGTCATGGACCGGTTTTCCCGGTAATCCGTATTTGTT (site GGTACGGCTAA) | 0.0154
14 | GGTACGTCATGGACCGGTTTTCCCGGTAATCCGTATTTGTT (site GGTACGTCTAA) | 0.31
15 | GGTACGTCATGGACCGGTTTTCCCGGTAATCCGTATTTGTT (site GGTACGTCTAC) | 0
16 | GGTACGTCATGGACCGGTTTTCCCGGTAATCCGTATTTGTT (site GGTACGTCTAG) | 0
17 | GGTACGTCATGGACCGGTTTTCCCGGTAATCCGTATTTGTT (site GGTACGTCTAT) | 0
18 | GGTACGTCATGGACCGGTTTTCCCGGTAATCCGTATTTGTT (site GGTACGTCTCA) | 0.0191
19 | GGTACGTCATGGACCGGTTTTCCCGGTAATCCGTATTTGTT (site GGTACGTCTGA) | 0
20 | GGTACGTCATGGACCGGTTTTCCCGGTAATCCGTATTTGTT (site GGTACGTCTTA) | 0.0065
21 | GGTACGTCATGGACCGGTTTTCCCGGTAATCCGTATTTGTT (site GGTACTTCTAA) | 0
22 | GGTACGTCATGGACCGGTTTTCCCGGTAATCCGTATTTGTT (site GGTAGGTCTAA) | 0.00929
23 | GGTACGTCATGGACCGGTTTTCCCGGTAATCCGTATTTGTT (site GGTATGTCTAA) | 0.00457

Row | Sequence | recombinant UMI read abundance (log10)
24 | GGTACGTCATGGACCGGTTTTCCCGGTAATCCGTATTTGTT (site GGTCCGTCTAA) | 0.0113
25 | GGTACGTCATGGACCGGTTTTCCCGGTAATCCGTATTTGTT (site GGTGCGTCTAA) | 0.00982
26 | GGTACGTCATGGACCGGTTTTCCCGGTAATCCGTATTTGTT (site GGTTCGTCTAA) | 0
27 | GGTACGTCATGGACCGGTTTTCCCGGTAATCCGTATTTGTT (site GTTACGTCTAA) | 0.0263
28 | GGTACGTCATGGACCGGTTTTCCCGGTAATCCGTATTTGTT (site TGTACGTCTAA) | 0.0329
29 | GGTACTTCATGGACCGGTTTTCCCGGTAATCCGTATTTGAT (site GGTACTTCTAT) | 0.4
30 | GGTAGAACATGGACCGGTTTTCCCGGTAATCCGTATTTGTA (site GGTAGAACTTA) | 1.39
31 | GGTAGCGCATGGACCGGTTTTCCCGGTAATCCGTATTTGTT (site GGTAGCGCTAA) | 1.5
32 | GGTCAAACATGGACCGGTTTTCCCGGTAATCCGTATTTGTA (site GGTCAAACTTA) | 0.645
33 | GGTCAAACATGGACCGGTTTTCCCGGTAATCCGTATTTGTA (site GGTCCAACTTA) | 0.0193
34 | GGTCAAACATGGACCGGTTTTCCCGGTAATCCGTATTTGTA (site GGTCGAACTTA) | 0.00424
35 | GGTCAAACATGGACCGGTTTTCCCGGTAATCCGTATTTGTA (site GGTCTAACTTA) | 0.0103
36 | GGTCACGCATGGACCGGTTTTCCCGGTAATCCGTATTTGTC (site GGTCACGCTGA) | 2.56
37 | GGTCAGTCATGGACCGGTTTTCCCGGTAATCCGTATTTGGA (site GGTCAGTCTTC) | 0.503
38 | GGTCCAACATGGACCGGTTTTCCCGGTAATCCGTATTTGAT (site GGTCCAACTAT) | 0
39 | GGTCCAACATGGACCGGTTTTCCCGGTAATCCGTATTTGGA (site GGTCCAACTTA) | 0.00455
40 | GGTCCAACATGGACCGGTTTTCCCGGTAATCCGTATTTGGA (site GGTCCAACTTC) | 0.0919
41 | GGTCCAACATGGACCGGTTTTCCCGGTAATCCGTATTTGGA (site GGTCCAACTTG) | 0.0106
42 | GGTCCAACATGGACCGGTTTTCCCGGTAATCCGTATTTGGA (site GGTCCAACTTT) | 0.00506
43 | GGTCCAACATGGACCGGTTTTCCCGGTAATCCGTATTTGTC (site GGTCCAACTAA) | 0.015
44 | GGTCCAACATGGACCGGTTTTCCCGGTAATCCGTATTTGTC (site GGTCCAACTCA) | 0.00327
45 | GGTCCAACATGGACCGGTTTTCCCGGTAATCCGTATTTGTC (site GGTCCAACTGA) | 0
46 | GGTCCAACATGGACCGGTTTTCCCGGTAATCCGTATTTGTC (site GGTCCAACTTA) | 0.035

Row | Sequence | recombinant UMI read abundance (log10)
47 | GGTCCACCATGGACCGGTTTTCCCGGTAATCCGTATTTGTA (site GGTCCAACTTA) | 0.0242
48 | GGTCCACCATGGACCGGTTTTCCCGGTAATCCGTATTTGTA (site GGTCCACCTTA) | 0.0126
49 | GGTCCACCATGGACCGGTTTTCCCGGTAATCCGTATTTGTA (site GGTCCAGCTTA) | 0.0357
50 | GGTCCACCATGGACCGGTTTTCCCGGTAATCCGTATTTGTA (site GGTCCATCTTA) | 0.0355
51 | GGTCCAGCATGGACCGGTTTTCCCGGTAATCCGTATTTGAA (site GGTCCAGCTTT) | 0.307
52 | GGTCCAGCATGGACCGGTTTTCCCGGTAATCCGTATTTGTA (site GGTCCAACTTA) | 0
53 | GGTCCAGCATGGACCGGTTTTCCCGGTAATCCGTATTTGTA (site GGTCCACCTTA) | 0.00451
54 | GGTCCAGCATGGACCGGTTTTCCCGGTAATCCGTATTTGTA (site GGTCCAGCTTA) | 1.56
55 | GGTCCAGCATGGACCGGTTTTCCCGGTAATCCGTATTTGTA (site GGTCCATCTTA) | 0.0161
56 | GGTCCGTCATGGACCGGTTTTCCCGGTAATCCGTATTTGTT (site GGTACGTCTAA) | 0.00692
57 | GGTCCGTCATGGACCGGTTTTCCCGGTAATCCGTATTTGTT (site GGTCCGTCTAA) | 0.00423
58 | GGTCCGTCATGGACCGGTTTTCCCGGTAATCCGTATTTGTT (site GGTGCGTCTAA) | 0.0122
59 | GGTCCGTCATGGACCGGTTTTCCCGGTAATCCGTATTTGTT (site GGTTCGTCTAA) | 0.0141
60 | GGTCGAACATGGACCGGTTTTCCCGGTAATCCGTATTTGTA (site GGTCAAACTTA) | 0.0946
61 | GGTCGAACATGGACCGGTTTTCCCGGTAATCCGTATTTGTA (site GGTCCAACTTA) | 0.00781
62 | GGTCGAACATGGACCGGTTTTCCCGGTAATCCGTATTTGTA (site GGTCGAACTTA) | 0.761
63 | GGTCGAACATGGACCGGTTTTCCCGGTAATCCGTATTTGTA (site GGTCTAACTTA) | 0.00734
64 | GGTGACCCATGGACCGGTTTTCCCGGTAATCCGTATTTGCA (site GGTGACCCTTG) | 0.706
65 | GGTGCAGCATGGACCGGTTTTCCCGGTAATCCGTATTTGGA (site GGTGCAGCTTC) | 0.0152
66 | GGTGCCACATGGACCGGTTTTCCCGGTAATCCGTATTTGGT (site GGTGCCACTAC) | 0.406
67 | GGTGCGACATGGACCGGTTTTCCCGGTAATCCGTATTTGTT (site GGTGCGACTAA) | 0.345
68 | GGTGCTACATGGACCGGTTTTCCCGGTAATCCGTATTTGGA (site GGTGCTACTTC) | 0.449
